The assay has as its target T1, HMG-CoA reductase (Rattus norvegicus, UniProt P51639).
T1 sequence (P51639 1-887): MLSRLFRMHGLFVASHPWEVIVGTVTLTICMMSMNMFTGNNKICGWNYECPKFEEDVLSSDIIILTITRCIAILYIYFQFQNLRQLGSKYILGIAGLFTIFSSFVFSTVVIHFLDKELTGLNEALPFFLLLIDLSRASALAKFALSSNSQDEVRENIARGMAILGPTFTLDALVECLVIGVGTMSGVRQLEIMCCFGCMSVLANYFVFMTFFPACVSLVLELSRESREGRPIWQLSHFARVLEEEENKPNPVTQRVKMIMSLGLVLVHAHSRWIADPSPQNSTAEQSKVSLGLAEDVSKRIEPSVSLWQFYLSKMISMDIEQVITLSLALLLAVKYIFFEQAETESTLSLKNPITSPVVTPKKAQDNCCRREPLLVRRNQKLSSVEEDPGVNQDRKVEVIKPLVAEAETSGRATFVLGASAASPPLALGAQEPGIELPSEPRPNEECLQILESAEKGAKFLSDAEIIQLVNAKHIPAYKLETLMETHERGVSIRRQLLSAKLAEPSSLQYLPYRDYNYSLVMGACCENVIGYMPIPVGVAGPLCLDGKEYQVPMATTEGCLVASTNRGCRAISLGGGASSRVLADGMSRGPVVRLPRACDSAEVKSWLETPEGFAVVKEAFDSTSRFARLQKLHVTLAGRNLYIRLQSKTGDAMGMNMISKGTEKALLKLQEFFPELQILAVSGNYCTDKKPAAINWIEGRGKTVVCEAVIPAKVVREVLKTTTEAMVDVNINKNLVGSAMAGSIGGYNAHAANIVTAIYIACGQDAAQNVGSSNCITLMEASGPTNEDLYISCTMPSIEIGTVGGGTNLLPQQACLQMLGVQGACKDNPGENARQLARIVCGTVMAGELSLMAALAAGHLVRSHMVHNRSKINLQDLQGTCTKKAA
Description: intrinsic HMG-CoA reductase inhibition, in vitro protocol published in J. Med. Chem., 28, p. 347-358 (1985). The assay is classed as biochemical. To be noted: read-out: IC₅₀ value (converted). Here is the method: The intrinsic HMG-CoA reductase inhibition activity of the claimed compounds is measured in the in vitro protocol published in J. Med. Chem., 28, p. 347-358 (1985).

Results on one compound are retold here after patent EP0408806A1, “Antihypercholesterolemic agents” (MERCK & CO. INC., priority 1989, dated 1991).

Regarding `CCC(C)(C)C(=O)OC1CC(C)=CC2=CC(=O)C(C)C(CCC3CC(O)CC(=O)O3)C21` [6(R)-[2-[8(S)-(2,2-dimethylbutyryloxy)-2(S),6-dimethyl-3-oxo-1,2,7,8,8a(R)-pentahydronaphthyl-1(S)]ethyl]-4(R)-hydroxy-3,4,5,6-tetrahydro-2H-pyran-2-one], the IC50 was 4.62 nM.
